The values below are quoted from earlier work in US20040202705A1 (priority 1999, published 2004).

The conditions of the data set: human, in vivo.

For the molecule `Nc1c2c(nc3ccccc13)CCCC2` [Tacrine], the “Patients with reversible hepatotoxicity” value was “approximately 30%”.
